Entries after “also recorded” stand apart in the source; their conditions may differ.
Columns and labels:
[1] = test system: brain hippocampus and cortex; experiment: T1-weighted MRI of brain influx of i.c.m. gadolinium, Lymph4D analysis; format: in vivo, mice
From the text: Measurement of gadolinium influx rate and modeling of tracer advection-diffusion within the brain were achieved using Lymph4D, a software developed in-house and available for revision purposes on the following link on the world wide web: viva-lab.ece.virginia.edu/lymph4d. To allow for a direct comparison between the different conditions, the MRI stacks Si(x, y, z, t) of the imaged mice (4 vehicle and 4 Visudyne) were aligned to a Visudyne stack V1(x, y, z, t), chosen as reference. Before proceeding with the automated registration in the (x, y) plane, the stacks were manually aligned along the z (sagittal) direction, to ensure the correspondence between (x, y) (transversal plane) slices, and cropped both in the z and t (time) direction, to ensure that each set of coordinates (x, y, z, t) contained meaningful data. To optimize the slice alignment in the (x, y) plane, scale pyramids (Adelson, E. H., Anderson, C. H., Bergen, J. R., Burt, P. J. & Ogden, J. M. Pyramid methods in image processing. RCA engineer 29, 33-41, (1984).) (3 levels deep) were computed for both the image to be registered and the reference. Starting from the coarser scale, the optimal non-reflective transformation matrix (restricted to translation, rotation, and scaling) was evaluated by using an iterative process based on the steep gradient descent method with a mean square error (MSE) cost function. After reaching algorithm convergence at the largest scale, or the maximum number of allowed iterations, the alignment was refined using progressively finer scales. A linear interpolation mapping was then used to reconstruct the image registered using the optimized transformation matrix. The following alignment strategy was used. Given a stack Si to be aligned to V1, for every slice zj(t)=Si(x, y, zj, t) at a given location in the sagittal direction (z=zj), the optimal transformation matrix was evaluated at every available time (t) and the quality (MSE) of the resulting alignment measured. […] Also, after the alignment, contrast measurement, providing the difference between the maximum and the minimum values observed along the temporal direction during the experiment duration (variability in tracer signal intensity over time), was evaluated for a given (x, y, z) location in the S; stack using: […]
The model was discretized using the forward-time central-space (FTCS) finite difference method (Ferziger, J. H. & Perić, M. Finite Difference Methods. In: Computational Methods for Fluid Dynamics. 3rd edition, 39-69, Springer, Berlin, Heidelberg, (2002).) after the following assumptions. The concentration (x, t) was considered proportional to the measured MRI signal intensity. […]

[2] = test system: aquaporin 4 (AQP4); experiment: AQP4 / CD31 immunostaining of brain sections; format: in vivo, mice
Procedure: Mouse fresh frozen brain sections were fixed with 4% PFA for 30 min, rinsed in dH2O and submitted to a heat-induced antigen retrieval step with 10 mM citrate buffer for 20 min. […] The steps described next were generally applied for mouse fresh frozen or fixed free-floating brain sections, lymph node sections on slide, meningeal whole-mounts and human fixed tissue. For immunofluorescence staining, tissue was rinsed in PBS and washed with PBS 0.5% Triton-X-100 for 10 min, followed by incubation in PBS 0.5% Triton-X-100 containing 0.5% of normal serum (either goat or chicken) and 0.5% bovine serum albumin (BSA) for 1 hour at RT. This blocking step was followed by incubation with appropriate dilutions of primary antibodies: anti-LYVE-1 eFluor 660 or anti-LYVE-1 Alexa Fluor® 488 (eBioscience, clone ALY7, 1:200), anti-CD31 (Millipore Sigma, MAB1398Z, clone 2H8, 1:200), anti-IBA1 (Abcam, ab5076, 1:300), anti-GFAP (Millipore Sigma, ab5541, 1:300), anti-AQP4 (Millipore Sigma, A5971, 1:200), anti-Ki67 (Abcam, ab15580, 1:100), anti-hAβ1-16 (BioLegend, clone 6E10, 1:200), anti-Aβ1-37/42 (Cell Signaling, clone D54D2, 1:300) and anti-GFP (Abcam, ab6556, 1:300) in PBS 0.5% Triton-X-100 containing 0.5% of normal serum and 0.5% BSA overnight at 4° C. Meningeal whole-mounts or tissue sections were then washed 3 times for 5 min at RT in PBS 0.5% Triton-X-100 followed by incubation with the appropriate chicken, goat or donkey Alexa Fluor® 488, 546, 594, or 647 anti-rat, -goat, -rabbit, -mouse or -Armenian hamster IgG antibodies (Thermo Fisher Scientific, 1:500) for 1 or 2 hours at RT in PBS 0.5% Triton-X-100. After an incubation for 10 min with 1:2000 DAPI in PBS, the tissue was washed 3 times for 5 min with PBS at RT and mounted with Aqua-Mount (Lerner) and glass coverslips. Preparations were stored at 4° C. for no more than 1 week until images were acquired either using a widefield microscope (Leica) or a confocal microscope (FV1200 Laser Scanning Confocal Microscope, Olympus). Quantitative analysis using the acquired images was performed on FIJI software. For the assessment of brain fluorescent tracer influx or efflux or AQP4 coverage, 10 representative brain sections were imaged using the widefield microscope and the mean area fraction was calculated using Microsoft Excel. […] Area of coverage by CD31^+ blood vessels and AQP4^+ astrocyte endfeet in the brain cortex was achieved by calculating the mean value of 10 representative fields (5 images in each cerebral hemisphere) per sample acquired using the confocal microscope.

[3] = test system: meningeal immune cells; experiment: Flow cytometry of meningeal immune cell populations; format: in vivo; conditions: 5xFAD mice
Procedure: Individual meninges were immediately dissected from the mouse's skull cap and digested 15 min at 37° C. with 1.4 U/ml of Collagenase VIII (Sigma Aldrich) and 35 U/ml of DNAse I (Sigma Aldrich) in complete media consisting of DMEM (Gibco) with 2% FBS (Atlas Biologicals), 1% L-Glutamine (Gibco), 1% penicillin/streptomycin (Gibco), 1% Sodium pyruvate (Gibco), 1% non-essential amino-acid (Gibco) and 1.5% Hepes (Gibco). […] Cell viability was determined by using the Zombie Aqua™ Fixable Viability Kit following the manufacturer's instructions (BioLegend). […] Fluorescence data was collected with a Gallios™ Flow Cytometer (Beckman Coulter, Inc.) then analyzed using FlowJo software (Tree Star, Inc.). […] An aliquot of unstained cells of each sample was counted using Cellometer Auto2000 (Nexcelor) to provide accurate counts for each population. […]

[4] = Visudyne-treated vs vehicle-treated mice

For verteporfin [Visudyne], the “Gd signal gain in hippocampus and cortex” value ([1]; 7 days after Visudyne/photoconversion, Gd 25 mM i.c.m., 16 MRI sequences (~52 min), vs vehicle) was “significantly lower”, the “contrast in Gd signal intensity in the ventricles” value ([1]; Visudyne-treated mice, over ~52 min) was “higher contrast in signal intensity” and the “isotropic diffusion coefficient of Gd in the brain” value ([1]; after meningeal lymphatic ablation with Visudyne, advection-diffusion model in Lymph4D) was “lower coefficient values”. The “Gd signal intensity gain (relative to sequence 1) in the brain cortex” value ([1]; one week after Visudyne/photoconversion, Gd 25 mM i.c.m., vs vehicle/photoconversion) was “significant decrease”, the “area of AQP4+ astrocytic endfeet in brain cortex” value ([2]; Visudyne vs vehicle) was “No changes were observed” and the “area of CD31+ blood vessels in brain cortex” value ([2]; Visudyne vs vehicle) was “No changes were observed”. For the same substance, the “ratio between area of AQP4+ and of CD31+” value ([2]; Visudyne vs vehicle) was “No changes were observed”, the “overall brain coverage by AQP4 (area fraction)” value [2, 4] was “could not detect changes; also recorded: no differences between groups” and the “perivascular localization of AQP4+ astrocytic endfeet” value [2, 4] was “could not detect changes”. For the same substance, the “number of macrophages in the meninges” value ([3]; 1.5 months Visudyne/photoconversion vs both control groups) was “significant increase” and the “neutrophils in the meninges” value ([3]; Visudyne group (no photoconversion) compared to Visudyne/photoconversion group) was “significant increase”.

From US12352767B2, “Method of treating cognitive decline associated with neurological diseases based on a decrease in FLT4 expression or activity” (University of Virginia Patent Foundation, priority 2018, dated 2025)
